Measurements published in patent US9695178B2, “6-(2-pyridyl)-7,8-dihydro-5H-pyrido[4,3-D]pyrimidine analogs as hedgehog pathway signaling inhibitors and therapeutic applications thereof” (Suzhou Yunxuan Yiyao Keji Youxian Gongsi, priority 2013, dated 2017).
Read-outs that look alike come from different tables or passages of the source.

Molecular target: Smo (Homo sapiens, UniProt Q99835)
Experiment: Bodipy-Cyclopamine Binding Assay (confirmation assay), Hek293-SMO cells
[1] = Smo IC50 (nM), confirmation assay, competition with 100 nM bodipy-cyclopamine, Hek293-SMO cells

Sequence of Smo (Q99835 28-787): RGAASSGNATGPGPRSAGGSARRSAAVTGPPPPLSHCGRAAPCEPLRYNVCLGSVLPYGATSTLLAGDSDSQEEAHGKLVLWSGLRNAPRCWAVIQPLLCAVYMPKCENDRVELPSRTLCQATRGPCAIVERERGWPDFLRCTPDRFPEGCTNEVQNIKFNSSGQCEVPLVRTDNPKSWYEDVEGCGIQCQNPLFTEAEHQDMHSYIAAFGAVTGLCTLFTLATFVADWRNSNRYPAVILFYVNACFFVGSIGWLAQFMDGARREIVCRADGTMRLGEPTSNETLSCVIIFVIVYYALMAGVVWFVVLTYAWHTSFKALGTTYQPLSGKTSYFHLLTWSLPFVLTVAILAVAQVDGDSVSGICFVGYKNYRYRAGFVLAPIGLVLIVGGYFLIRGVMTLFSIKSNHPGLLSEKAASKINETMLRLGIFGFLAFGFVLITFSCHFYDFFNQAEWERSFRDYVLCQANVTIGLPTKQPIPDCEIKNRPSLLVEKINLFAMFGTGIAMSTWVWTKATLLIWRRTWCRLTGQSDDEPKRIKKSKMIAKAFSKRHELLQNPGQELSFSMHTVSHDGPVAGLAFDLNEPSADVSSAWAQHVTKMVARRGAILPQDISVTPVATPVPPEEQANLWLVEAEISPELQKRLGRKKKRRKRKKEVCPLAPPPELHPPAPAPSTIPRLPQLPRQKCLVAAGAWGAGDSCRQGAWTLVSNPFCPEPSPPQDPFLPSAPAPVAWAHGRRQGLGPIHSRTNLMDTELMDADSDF
Protocol: The confirmation assay is based on Bodipy-Cyclopamine Binding Assay:
Bodipy-Cyclopamine binding assay is a fluorescence based assay used to analysis the binding of Smo agonists. […] Bodipy-Cyclopamine was purchased from Toronto Research Chemicals and dissolved in methanol.
Hek293-SMO cells were plated in 96-well-plate (3340, Corning), the final cell concentration is 15,000 cells/well in 100 ul 1% serum-containing DMEM. The plates were incubated in 37 degree for additional 48 hours.
Hek293-SMO plate were washed with PBS and fixed with 4% paraformaldehyde (PFA)/PBS for 20 min at room temperature. After removing the PFA buffer, the cells were incubated with DAPI/PBS (5 ug/mL) for 10 min and followed by twice wash with PBS. After wash, cells were incubated for 2 h at room temperature in binding buffer (HBSS W/O Ca^2+ and Mg^2+) containing 100 nM bodipy-cyclopamine and compounds over a range of concentrations from 0-10 μM for competitive binding. After incubation, the cells were washed twice with the PBS. The fluorescence images were automatically captured and analyzed by a high content fluorescence imaging system (Arrayscan VTI, Thermo). GDC-0449 was used as reference compound to normalize the data. IC50 values were calculated with GraphPad Prism software using the sigmoidal dose-response function. The Ki was calculated following the Cheng-Prusoff equation, as Ki=IC50/[1+[bodipy-cyclopamine]/Kd)].

Row | SMILES | IC50 | other results
1 | Cc1cnc(-c2cc(N3Cc4cnc(N5CCCC5)nc4C(C)C3)ncc2Cl)c(C)c1 (stereo not shown) [Compound A-77, 6-(5′-chloro-3,5-dimethyl-2,4′-bipyridin-2′-yl)-8-methyl-2-(pyrrolidin-1-yl)-5,6,7,8-tetrahydropyrido[4,3-d]pyrimidine] | 92.9 nM | –
2 | CC1=C2CC3C(CC=C4C[C@@H](O)CCC43C)C2CCC12O[C@@H]1CC(C)CN(CCNC(=O)CCCCCNC(=O)CCC3=[N+]4C(=Cc5c(C)cc(C)n5[B-]4(F)F)C=C3)C1C2C (stereo partly shown) [bodipy-cyclopamine, reference compound] | – | Kd (read-out: Kd of bodipy-cyclopamine for WT-Smo, used in the Cheng-Prusoff equation): 0.0035 ± 0.0008 µM
3 | Cc1cnc(-c2cc(N3CCn4cc(CN5CCOCC5)nc4C3)ncc2Cl)c(C)c1 [Compound A-11, 4-((7-(5′-chloro-3,5-dimethyl-2,4′-bipyridin-2′-yl)-5,6,7,8-tetrahydroimidazo[1,2-a]pyrazin-2-yl)methyl)morpholine] | 676 nM | –
4 | CCNC(=O)c1cn2c(n1)CN(c1cc(-c3ncc(C)cc3C)c(Cl)cn1)CC2 [Compound A-9, 7-(5′-chloro-3,5-dimethyl-2,4′-bipyridin-2′-yl)-N-ethyl-5,6,7,8-tetrahydro-imidazo-[1,2-a]pyrazine-2-carboxamide] | – | IC50 [1]: > 1000 nM
5 | Cc1cnc(-c2cc(N3CCc4nc(NC(=O)CCN5CCCCC5)sc4C3)ncc2Cl)c(C)c1 [Compound A-40, N-(5-(5′-chloro-3,5-dimethyl-2,4′-bipyridin-2′-yl)-4,5,6,7-tetrahydro-thiazolo-[5,4-c]pyridin-2-yl)-3-(piperidin-1-yl)propanamide] | 151 nM | –
6 | Cc1cnc(-c2cc(N3CCn4cc(CO)nc4C3)ncc2Cl)c(C)c1 [Compound A-10, (7-(5′-chloro-3,5-dimethyl-2,4′-bipyridin-2′-yl)-5,6,7,8-tetrahydro-imidazo-[1,2-a]pyrazin-2-yl)methanol] | – | IC50 [1]: > 1000 nM
7 | Cc1cnc(-c2cc(N3CCc4nc(-n5cccn5)sc4C3)ncc2Cl)c(C)c1 [Compound A-36, 5-(5′-chloro-3,5-dimethyl-2,4′-bipyridin-2′-yl)-2-(1H-pyrazol-1-yl)-4,5,6,7-tetrahydro-thiazolo-[5,4-c]pyridine] | 565 nM | –
8 | Cc1cnc(-c2cc(N3CCn4cc(C(=O)O)nc4C3)ncc2Cl)c(C)c1 [Compound A-2, 7-(5′-chloro-3,5-dimethyl-2,4′-bipyridin-2′-yl)-5,6,7,8-tetrahydro-imidazo-[1,2-a]pyrazine-2-carboxylic acid] | > 10000 nM | –
9 | C=CC(=O)Nc1nc2c(s1)CN(c1cc(-c3ncc(C)cc3C)c(Cl)cn1)CC2 [Compound A-44, N-(5-(5′-chloro-3,5-dimethyl-2,4′-bipyridin-2′-yl)-4,5,6,7-tetrahydro-thiazolo-[5,4-c]pyridin-2-yl)acrylamide] | > 1000 nM | –
10 | Cc1cnc(-c2cc(N3CCc4nc(NC(=O)C(C)(C)C)sc4C3)ncc2Cl)c(C)c1 [Compound A-28, N-(5-(5′-chloro-3,5-dimethyl-2,4′-bipyridin-2′-yl)-4,5,6,7-tetrahydro-thiazolo-[5,4-c]pyridin-2-yl)pivalamide] | 127 nM | –
11 | CCC(=O)Nc1cn2c(n1)CN(c1cc(-c3ncc(C)cc3C)c(Cl)cn1)CC2 [Compound A-13, N-(7-(5′-chloro-3,5-dimethyl-2,4′-bipyridin-2′-yl)-5,6,7,8-tetrahydroimidazo[1,2-a]pyrazin-2-yl)propionamide] | > 1000 nM | –
12 | Cc1cnc(-c2cc(N3CCc4nc(OC5CCCC5)ncc4C3)ncc2Cl)c(C)c1 [Compound A-71, 6-(5′-chloro-3,5-dimethyl-2,4′-bipyridin-2′-yl)-2-(cyclo-pentyloxy)-5,6,7,8-tetrahydro-pyrido-[4,3-d]pyrim-idine] | 77.1 nM | –
13 | Cc1cnc(-c2cc(N3CCn4cc(C(=O)Nc5ccccc5)nc4C3)ncc2Cl)c(C)c1 [Compound A-19, 7-(5′-chloro-3,5-dimethyl-2,4′-bipyridin-2′-yl)-N-phenyl-5,6,7,8-tetrahydro-imidazo-[1,2-a]pyrazine-2-carboxamide] | – | IC50 [1]: 311 nM
